Measured values published in ChEMBL document CHEMBL4052746, “Flavonoid glycosides from Barringtonia acutangula” (Bioorg Med Chem Lett, 2017).

What was measured:
RAW264.7 [1] = experiment: Antiinflammatory activity in mouse RAW264.7 cells assessed as inhibition of LPS-induced NO production pretreated for 30 mins followed by LPS stimulation for 24 hrs by Griess assay; type: functional, cell-based
RAW264.7 [2] = experiment: Cytotoxicity against mouse RAW264.7 cells assessed as reduction in cell viability by MTT assay; type: cell-based

- IC50 (RAW264.7 [1]): 20 µM
Structure (SMILES): O=C(OC[C@H]1O[C@@H](Oc2c(-c3ccc(O)c(O)c3)oc3cc(O)cc(O)c3c2=O)[C@H](O)[C@@H](O)[C@H]1O)c1ccc(O)cc1
- Activity (RAW264.7 [2]): Non-Toxic
